Reference: patent US20250108119A1, “NOVEL STEROID PAYLOADS, STEROID LINKERS, ADCs CONTAINING AND USE THEREOF” (IMMUNEXT, INC., priority 2021, published 2025)

Columns and labels:
[1] = test system: LPS stimulated human PBMCs; test: LPS stimulated human PBMC, IL-1β and IL-6 ELISA; type: cell-based; details: for inhibition of IL-1β and IL-6 production / inhibition of IL-1β production: 24 hr
Description: The potency of novel steroids was assessed in a model of LPS stimulated human peripheral blood mononuclear cells (PBMCS). Stimulated PBMCs in this assay produce multiple pro-inflammatory cytokines1.
In all the following experiments, human PBMC, isolated from 1-2 healthy donors per study, were stimulated with LPS to induce cytokine production.
LPS was added either immediately after addition of free payload, or in the case of conjugates, four hours after addition of the conjugate.
Cells were plated in flat bottom 96 well plates at a final concentration of 150,000 cells/well, with technical duplicates for each condition.
Test agents were serially diluted in the assay media and added to a final concentration of 1,000 nM-1 nM or 0.2 nM depending on the assay or as a no treatment control.
LPS stimulation was added to a final concentration of 1 ng/ml.
Human IL-1β and IL-6 ELISA kits were used on supernatants according to vendor protocols. All graphs were prepared with GraphPad (Prism).

human PBMC = test: Cytokine production (IL-1β, IL-6) at 24 hr by human PBMC incubated with 1 ng/mL LPS; type: cell-based; details: for inhibition of IL-1β production / inhibition of IL-6 production: free steroid payloads, serial dilutions, 1 ng/mL LPS, 24 hr
Description: (§1) FIG. 51: INX-SM-3, INX-SM-4, and INX-SM-1 inhibit IL-1β (left) and IL-6 (right) production. Cytokine levels were measured at 24 hr for human PBMCS incubated with 1 ng/mL LPS and serial dilutions (1000-1 nM) of steroid payloads, with the no treatment control plotted on the log-scale x-axis at <1 nM; n=1 donor, standard deviation plotted from technical duplicates.
as §1, with “52: INX-SM-1,” for “51:”, “INX-SM-4” for “INX-SM-4,”, “INX-SM-6” for “INX-SM-1”, “IL-1β” for “IL-1β (left) and IL-6 (right)”, “levels” for “levels were”, “ng/ml” for “ng/mL”
(§2) FIG. 53: INX-SM-9, INX-SM-31 and INX-SM-35 inhibit IL-1β (top) and IL-6 (bottom) production. Cytokine levels measured at 24 hr for human PBMCS incubated with 1 ng/mL LPS and serial dilutions (1000-0.2 nM) of steroid payloads, with the no treatment control plotted on the log-scale x-axis at <0.2 nM; n=2 donors-representative donor shown. Standard deviation plotted from technical duplicates.
as §2, with “54: INX-SM-32 inhibits” for “53: INX-SM-9, INX-SM-31 and INX-SM-35 inhibit”, “(500-1” for “(1000-0.2”, “<1” for “<0.2”, “n=2. Representative” for “n=2 donors-representative”
Cytokine levels measured at 24 hr for human PBMCS incubated with 1 ng/ml LPS and serial dilutions (1000-0.5 nM) of steroid payloads, with the no treatment control plotted on the log-scale x-axis at <0.5 nM; n=1 donor, standard deviation plotted from technical duplicates.
FIG. 56: INX-SM-2 and INX-SM-7 show inhibition in IL-1β. Average Cytokine levels measured at 24 hr for human PBMCS incubated with 1 ng/ml LPS and serial dilutions (1000-0.16 nM) of steroid payloads, with the no treatment control plotted on the log-scale x-axis at <0.16 nM; n=1, standard deviation plotted from technical duplicates. […]
Average cytokine levels measured at 24 hr for human PBMC incubated with 1 ng/ml LPS and serial dilutions (100-0.032 nM) of glucocorticoid payloads; n=1, mean of technical duplicates.
Average cytokine levels measured at 24 hr for human PBMC incubated with 1 ng/mL LPS and serial dilutions (1000-0.32 nM) of glucocorticoid payloads; n=1, mean of technical duplicates.
Cytokine levels measured at 24 hr for human PBMC incubated with 1 ng/mL LPS and serial dilutions (1000-0.5 nM) of steroid payloads, with the no treatment control plotted on the log-scale x-axis at <0.5 nM; n=1 donor, mean of technical duplicates plotted.
Average cytokine levels for A. hull-1β B. huIL-6 measured at 24 hr for human PBMC incubated with 1 ng/mL LPS and serial dilutions (1000-0.16 nM) of conjugated steroid linker payloads, with the no treatment control plotted on the log-scale x-axis at <0.16 nM; n=1, standard deviation plotted from technical duplicates. Values above the ULOQ (12,500 pg/mL for IL-1b and 150,000 pg/mL for IL-6) were plotted as the extrapolated value.
Average cytokine levels for IL-1β measured at 24 hr for human PBMC incubated with 1 ng/mL LPS and serial dilutions (1000-0.16 nM) of conjugated steroid linker payloads, with the no treatment control plotted on the log-scale x-axis at <0.16 nM; n=1, mean plotted of technical duplicates
Average cytokine levels for IL-1β measured at 24 hr for human PBMC incubated with 1 ng/mL LPS and serial dilutions (1000-0.16 nM) of conjugated steroid linker payloads, with the no treatment control plotted on the log-scale x-axis at <0.16 nM; n=1, mean plotted of technical duplicates.
FIG. 66: Analogs of INX V are potent relative to INX231J. […]

[2] = Experiment 1: free payload 1000-1 nM, 1 ng/ml LPS, n=1 donor
[3] = Experiment 2: free payload 1000-1 nM, n=1 donor
[4] = Experiment 6: free payload 1000-0.16 nM

Structure (SMILES)	inhibition of IL-1β production [1, 3]	inhibition of IL-1β production (human PBMC)	inhibition of IL-6 production (human PBMC)	also measured
C[C@]12C=CC(=O)C=C1[C@@H](F)C[C@H]1[C@@H]3C[C@H]4O[C@@H](c5ccc(CC6CC7(C6)CC(NC(=O)[C@H](CCC(=O)O)NC(=O)CNC(=O)CBr)C7)cc5)O[C@@]4(C(=O)CO)[C@@]3(C)C[C@H](O)[C@@]12F (stereo partly drawn) [INX A23, (S)-4-(2-(2-bromoacetamido)acetamido)-5-((6-(4-((2S,6aS,6bR,7S,8aS,8bS,10R,11aR,12aS,12bS)-2,6b-difluoro-7-hydroxy-8b-(2-hydroxyacetyl)-6a,8a-dimethyl-4-oxo-2,4,6a,6b,7,8,8a,8b,11a,12,12a,12b-dodecahydro-1H-naphtho[2′,1′:4,5]indeno[1,2-d][1,3]dioxol-10-yl)benzyl)spiro[3.3]heptan-2-yl)amino)-5-oxopentanoic acid]				potency of conjugated linker payloads over INX J (conclusions) [1]: enhanced potency; potency in reducing IL-1β production (human PBMC; anti-VISTA conjugates, serial dilutions with respect to total ADC concentration (20-0.003 μg/mL), equivalent or reduced DAR): enhanced potency
C[C@]12C=CC(=O)C=C1CC[C@@H]1[C@@H]2[C@@H](O)C[C@@]2(C)[C@H]1C[C@H]1O[C@@H](c3ccc(Cc4cnc(N)s4)cc3)O[C@]12C(=O)CO [INX-SM-1, (6aR,6bS,7S,8aS,8bS,10R,11aR,12aS,12bS)-10-(4-((2-aminothiazol-5-yl)methyl)phenyl)-7-hydroxy-8b-(2-hydroxyacetyl)-6a,8a-dimethyl-1,2,6a,6b,7,8,8a,8b,11a,12,12a,12b-dodecahydro-4H-naphtho[2′,1′:4,5]indeno[1,2-d][1,3]dioxol-4-one]	show inhibition in IL-1β production	inhibit	inhibit	inhibition of IL-1β and IL-6 production [1, 2]: inhibit both IL-1β and IL-6 production
C[C@]12C=CC(=O)C=C1CC[C@@H]1[C@@H]2[C@@H](O)C[C@@]2(C)[C@H]1C[C@H]1O[C@@H](c3ccc(Cc4csc(N)n4)cc3)O[C@]12C(=O)CO [INX-SM-2, (6aR,6bS,7S,8aS,8bS,10R,11aR,12aS,12bS)-10-(4-((2-aminothiazol-4-yl)methyl)phenyl)-7-hydroxy-8b-(2-hydroxyacetyl)-6a,8a-dimethyl-1,2,6a,6b,7,8,8a,8b,11a,12,12a,12b-dodecahydro-4H-naphtho[2′,1′:4,5]indeno[1,2-d][1,3]dioxol-4-one]		inhibition		inhibition of IL-1β production [1, 4]: dose-dependent inhibition in IL-1β production
C[C@]12C=CC(=O)C=C1CC[C@@H]1[C@@H]2[C@@H](O)C[C@@]2(C)[C@H]1C[C@H]1O[C@@H](C34CC(Cc5cccc(N)c5)(C3)C4)O[C@]12C(=O)CO [INX-SM-4, (6aR,6bS,7S,8aS,8bS,10R,11aR,12aS,12bS)-10-(3-(3-aminobenzyl)bicyclo[1.1.1]pentan-1-yl)-7-hydroxy-8b-(2-hydroxyacetyl)-6a,8a-dimethyl-1,2,6a,6b,7,8,8a,8b,11a,12,12a,12b-dodecahydro-4H-naphtho[2′,1′:4,5]indeno[1,2-d][1,3]dioxol-4-one]	show inhibition in IL-1β production	inhibit	inhibit	inhibition of IL-1β and IL-6 production [1, 2]: inhibit both IL-1β and IL-6 production
C[C@]12C=CC(=O)C=C1CC[C@@H]1[C@@H]2[C@@H](O)C[C@@]2(C)[C@H]1C[C@H]1O[C@@H](c3cnc(Cc4cccc(N)c4)s3)O[C@]12C(=O)CO [INX-SM-6]	show inhibition in IL-1β production	inhibit		
C[C@]12C=CC(=O)C=C1CC[C@@H]1[C@@H]2[C@@H](O)C[C@@]2(C)[C@H]1C[C@H]1O[C@@H](c3ccc(Cc4ncc(N)s4)cc3)O[C@]12C(=O)CO [INX-SM-7, (6aR,6bS,7S,8aS,8bS,10R,11aR,12aS,12bS)-10-(4-((5-aminothiazol-2-yl)methyl)phenyl)-7-hydroxy-8b-(2-hydroxyacetyl)-6a,8a-dimethyl-1,2,6a,6b,7,8,8a,8b,11a,12,12a,12b-dodecahydro-4H-naphtho[2′,1′:4,5]indeno[1,2-d][1,3]dioxol-4-one]		inhibition		inhibition of IL-1β production [1, 4]: dose-dependent inhibition in IL-1β production
C[C@]12C=CC(=O)C=C1CC[C@@H]1[C@@H]2[C@@H](O)C[C@@]2(C)[C@H]1C[C@H]1O[C@@H](c3ccc(CC45C6C7C4C4C5C6C74N)cc3)O[C@]12C(=O)CO (stereo partly drawn) [INX-SM-9, (6aR,6bS,7S,8aS,8bS,10R,11aR,12aS,12bS)-10-(4-((4-aminocuban-1-yl)methyl)phenyl)-7-hydroxy-8b-(2-hydroxyacetyl)-6a,8a-dimethyl-1,2,6a,6b,7,8,8a,8b,11a,12,12a,12b-dodecahydro-4H-naphtho[2′,1′:4,5]indeno[1,2-d][1,3]dioxol-4-one]		inhibit	inhibit	inhibition of IL-1β production ([1]; Experiment 3: free payload 1000-0.2 nM, n=2 donors): dose dependent inhibition in IL-1β production
C[C@]12C=CC(=O)C=C1CC[C@@H]1[C@@H]2[C@@H](O)C[C@@]2(C)[C@H]1C[C@H]1O[C@@H](c3ccc(CC45CCC(N)(CC4)CC5)cc3)O[C@]12C(=O)CO [INX-SM-10, (6aR,6bS,7S,8aS,8bS,11aR,12aS,12bS)-10-(4-((4-aminobicyclo[2.2.2]octan-1-yl)methyl)phenyl)-7-hydroxy-8b-(2-hydroxyacetyl)-6a,8a-dimethyl-1,2,6a,6b,7,8,8a,8b,11a,12,12a,12b-dodecahydro-4H-naphtho[2′,1′:4,5]indeno[1,2-d][1,3]dioxol-4-one]		robust inhibition	robust inhibition	inhibition of IL-1β and IL-6 production ([1]; Experiment 5: free payload 1000-0.5 nM): robust inhibition in IL-1β (top) and IL-6 (bottom) production
C[C@]12C=CC(=O)C=C1CC[C@@H]1[C@@H]2[C@@H](O)C[C@@]2(C)[C@H]1C[C@H]1CN(Cc3ccc(CC45CC(N)(C4)C5)cc3)C[C@]12C(=O)CO [INX-SM-17, (6aR,6bS,7S,8aS,8bS,11aR,12aS,12bS)-10-(4-((3-aminobicyclo[1.1.1]pentan-1-yl)methyl)benzyl)-7-hydroxy-8b-(2-hydroxyacetyl)-6a,8a-dimethyl-1,6a,6b,7,8,8a,8b,9,10,11,11a,12,12a,12b-tetradecahydronaphtho[2′,1′:4,5]indeno[1,2-c]pyrrol-4 (2H)-one 2,2,2-trifluoroacetate]		weakly inhibits		inhibition of IL-1β and IL-6 ([1]; Experiment 12: free payloads 1000-0.15 nM): only weakly inhibit IL-1β
